Several values for one entry are separate records, joined by “and”; a condition that tells them apart may be missing. Identical values can stand only once. Like-named read-outs stand apart in the source and are kept apart here.
How the values were obtained:
[1] = rat plasma; cited from earlier work
[2] = cited from earlier work
P. falciparum Dd2 = conditions: read-out: EC50 Dd2 (parental); cited from earlier work
R2B = test: microbe, parasite or virus in culture; conditions: Plasmodium falciparum, read-out: EC50 R2B
[3] = In vitro metabolism, mouse liver microsomes
[4] = cited from earlier work; remark: listed apart in the source
[5] = mouse plasma; cited from earlier work
[6] = human liver microsomes; cited from earlier work
[7] = rat liver microsomes; cited from earlier work
[8] = cited from earlier work; remark: listed apart in the source
R1BC1A = test: microbe, parasite or virus in culture; conditions: Plasmodium falciparum, read-out: EC50 R1BC1A
[9] = cited from earlier work; remark: listed apart in the source
[10] = mouse liver microsomes; cited from earlier work
R10C1B = test: microbe, parasite or virus in culture; conditions: Plasmodium falciparum, read-out: EC50 R10C1B
[11] = human plasma; cited from earlier work
Pf3D7 cells = test: P. falciparum 3D7 growth inhibition; format: cell-based
PfDHODH = biological target: T1, PfDHODH (Plasmodium falciparum, UniProt Q08210); test: biochemical; parameters: species or system P. falciparum
T1 sequence (Q08210 24-569): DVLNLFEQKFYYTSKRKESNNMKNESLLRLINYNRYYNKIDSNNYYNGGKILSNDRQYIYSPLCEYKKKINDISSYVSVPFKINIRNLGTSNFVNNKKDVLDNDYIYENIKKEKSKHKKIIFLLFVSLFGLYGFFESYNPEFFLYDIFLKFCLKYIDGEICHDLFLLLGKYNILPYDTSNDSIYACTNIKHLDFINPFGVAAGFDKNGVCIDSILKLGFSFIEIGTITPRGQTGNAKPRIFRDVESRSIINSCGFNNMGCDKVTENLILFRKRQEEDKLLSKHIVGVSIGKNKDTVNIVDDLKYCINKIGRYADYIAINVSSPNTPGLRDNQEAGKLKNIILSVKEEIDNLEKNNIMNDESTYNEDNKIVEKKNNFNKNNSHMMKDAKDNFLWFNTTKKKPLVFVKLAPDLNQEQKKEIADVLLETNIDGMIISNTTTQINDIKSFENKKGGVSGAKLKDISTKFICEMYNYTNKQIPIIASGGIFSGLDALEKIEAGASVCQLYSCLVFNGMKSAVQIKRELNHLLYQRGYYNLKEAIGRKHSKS

[12] = Blood exposure in P. falciparum-infected SCID mice; format: in vivo; conditions: NOD-scidIL2Rγnull, mouse, whole blood, po
Albumax medium binding = format: in vitro ADME
Plasma protein binding [13] = format: in vitro ADME; conditions: human plasma
Plasma protein binding [14] = format: in vitro ADME; conditions: mouse plasma
Microsome binding = format: in vitro ADME, human
in vivo = conditions: male, Swiss outbred, mouse, plasma, iv
hERG = hERG (Homo sapiens, UniProt Q12809); test: hERG IonWorks patch clamp electrophysiology; format: cell-based
hERG, sequence (Q12809 whole entry): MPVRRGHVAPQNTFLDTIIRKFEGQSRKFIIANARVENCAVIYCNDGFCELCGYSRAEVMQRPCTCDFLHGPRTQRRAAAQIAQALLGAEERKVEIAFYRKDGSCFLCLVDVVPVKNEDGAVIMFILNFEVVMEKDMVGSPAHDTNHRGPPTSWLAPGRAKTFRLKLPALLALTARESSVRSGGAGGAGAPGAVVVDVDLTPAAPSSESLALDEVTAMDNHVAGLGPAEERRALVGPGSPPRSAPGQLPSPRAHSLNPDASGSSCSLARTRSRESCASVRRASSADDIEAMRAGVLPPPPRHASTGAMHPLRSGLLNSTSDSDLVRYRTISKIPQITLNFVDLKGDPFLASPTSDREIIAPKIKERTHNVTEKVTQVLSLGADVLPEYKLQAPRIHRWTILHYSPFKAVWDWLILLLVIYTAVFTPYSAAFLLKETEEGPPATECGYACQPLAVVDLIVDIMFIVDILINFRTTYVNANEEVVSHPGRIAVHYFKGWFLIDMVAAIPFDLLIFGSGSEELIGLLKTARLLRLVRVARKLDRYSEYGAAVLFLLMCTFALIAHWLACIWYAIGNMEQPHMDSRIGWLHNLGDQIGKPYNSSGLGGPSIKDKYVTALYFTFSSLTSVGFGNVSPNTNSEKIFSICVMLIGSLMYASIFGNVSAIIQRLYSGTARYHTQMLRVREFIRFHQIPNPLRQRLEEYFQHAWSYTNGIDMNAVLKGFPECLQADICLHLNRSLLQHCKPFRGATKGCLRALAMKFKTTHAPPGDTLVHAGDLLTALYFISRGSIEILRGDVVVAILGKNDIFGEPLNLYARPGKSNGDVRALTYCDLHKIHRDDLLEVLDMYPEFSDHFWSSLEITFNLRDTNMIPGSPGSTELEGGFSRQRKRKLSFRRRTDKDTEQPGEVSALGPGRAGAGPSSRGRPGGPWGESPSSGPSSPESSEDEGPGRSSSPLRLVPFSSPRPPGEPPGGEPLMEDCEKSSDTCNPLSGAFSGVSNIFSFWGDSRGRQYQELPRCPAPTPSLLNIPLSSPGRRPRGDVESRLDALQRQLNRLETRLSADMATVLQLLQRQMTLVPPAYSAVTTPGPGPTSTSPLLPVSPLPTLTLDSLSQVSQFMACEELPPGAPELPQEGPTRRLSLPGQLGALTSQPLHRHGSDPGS

KV1.5 K+ = KV1.5 K+ (Homo sapiens, UniProt P22460); test: Potassium channel IonWorks patch clamp electrophysiology; format: cell-based
KV1.5 K+, sequence (P22460 whole entry): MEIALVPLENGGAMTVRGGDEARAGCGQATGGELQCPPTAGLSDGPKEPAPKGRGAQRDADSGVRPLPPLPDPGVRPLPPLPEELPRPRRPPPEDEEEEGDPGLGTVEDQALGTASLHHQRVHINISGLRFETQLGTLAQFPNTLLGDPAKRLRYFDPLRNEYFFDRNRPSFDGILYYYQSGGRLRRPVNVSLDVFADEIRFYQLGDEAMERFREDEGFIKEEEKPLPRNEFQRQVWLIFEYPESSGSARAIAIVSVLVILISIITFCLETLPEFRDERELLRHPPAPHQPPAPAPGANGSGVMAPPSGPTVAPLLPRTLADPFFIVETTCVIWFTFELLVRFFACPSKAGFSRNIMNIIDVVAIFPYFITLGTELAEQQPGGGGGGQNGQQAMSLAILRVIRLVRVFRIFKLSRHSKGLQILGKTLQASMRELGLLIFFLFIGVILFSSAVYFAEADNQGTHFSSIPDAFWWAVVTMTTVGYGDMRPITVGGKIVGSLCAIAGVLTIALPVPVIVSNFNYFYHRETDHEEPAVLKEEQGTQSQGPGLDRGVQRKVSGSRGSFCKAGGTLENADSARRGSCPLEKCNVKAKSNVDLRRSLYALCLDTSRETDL

Plasma protein binding [15] = format: in vitro ADME; conditions: rat plasma
[16] = Plasmodium falciparum, read-out: EC50 Pf3D7 cells
[17] = Plasmodium falciparum, read-out: potency on Pf3D7 parasites

SMILES: Cc1cc(Nc2ccc(S(F)(F)(F)(F)F)cc2)n2nc(C(C)(F)F)nc2n1 [Compound 1]
- R plasma protein binding [1]: 97.0 % bound
- Solubility FeSSIF (pH 5.8) [2]: 27.6 μg/mL
- EC50 (P. falciparum Dd2): 0.0046 µM
- EC50 (R2B): 0.074 µM
- microsomal CLint at 1 μM [3]: 8 µL/min/mg
- Microsome binding [4]: 71.7 % bound
- M plasma protein binding [5]: 99.7 % bound
- H CLint [6]: <7 / <7 / <7 μL/min/mg
- R CLint [7]: <7 / <7 / <7 μL/min/mg
- human half-life [8]: ~ 100 hours
- EC50 (R1BC1A): 0.08 µM
- Albumax binding [9]: 83.1 % bound
- M CLint [10]: <7 / <7 / <7 μL/min/mg
- EC50 (R10C1B): 0.12 µM
- H plasma protein binding [11]: 99.9 % bound

SMILES: CCOC(=O)c1[nH]c(C)c(Cc2ccc(OCC)cc2)c1C [Compound 3, Ethyl 4-(4-ethoxybenzyl)-3,5-dimethyl-1H-pyrrole-2-carboxylate]
- EC50 (Pf3D7 cells; [16]): 0.23 µM
- EC50 (Pf3D7 cells; read-out: EC50 Pf3D7 cells): 0.25 µM

SMILES: CCOC(=O)c1[nH]c(C)c(Cc2ccc(C(F)(F)F)cc2)c1C [Compound 4, Ethyl 3,5-dimethyl-4-(4-(trifluoromethyl)benzyl)-1H-pyrrole-2-carboxylate]
- EC50 (Pf3D7 cells; [16]): 0.061 µM
- EC50 (Pf3D7 cells; read-out: EC50 Pf3D7 cells): 0.071 µM

SMILES: CCNC(=O)c1[nH]c(C)c(Cc2ccc(C(F)(F)F)nc2)c1C [Compound 16, N-Ethyl-3,5-dimethyl-4-((6-(trifluoromethyl)pyridin-3-yl)methyl)-1H-pyrrole-2-carboxamide]
- IC50 (PfDHODH; potency on PfDHODH): < 0.05 µM
- EC50 (Pf3D7 cells; [17]): < 0.05 µM

SMILES: Cc1[nH]c(C(=O)NC2CC2)c(C)c1Cc1ccc(C(F)(F)F)nc1 [Compound 18, N-Cyclopropyl-3,5-dimethyl-4-((6-(trifluoromethyl)pyridin-3-yl)methyl)-1H-pyrrole-2-carboxamide]
- EC50 (Pf3D7 cells; [17]): < 0.05 µM

SMILES: Cc1[nH]c(C(=O)NC2CCC2)c(C)c1Cc1ccc(C(F)(F)F)nc1 [Compound 19, N-Cyclobutyl-3,5-dimethyl-4-((6-(trifluoromethyl)pyridin-3-yl)methyl)-1H-pyrrole-2-carboxamide]
- IC50 (PfDHODH; IC50 PfDHODH): 0.072 µM and 0.042 µM

SMILES: Cc1[nH]c(C(=O)NC2CCC2)c(C)c1Cc1ccc(C(F)(F)F)cn1 [Compound 25, N-Cyclobutyl-3,5-dimethyl-4-((5-(trifluoromethyl)pyridin-2-yl)methyl)-1H-pyrrole-2-carboxamide]
- EC50 (Pf3D7 cells; [16]): 0.47 µM
- EC50 (Pf3D7 cells; read-out: EC50 Pf3D7 cells): 0.68 µM

SMILES: Cc1c(Cc2ccc(C(F)(F)F)nc2)c[nH]c1C(=O)NC1CC1 [Compound 37]
- AUC(0-t) ([12]; 10 mg/kg): 680 ng·h/mL
- AUC(0-t) ([12]; 50 mg/kg): 8600 ng·h/mL
- Cmax ([12]; 50 mg/kg): 2520 ng/mL
- Albumax binding (Albumax medium binding): 51.8 % bound
- H plasma protein binding (Plasma protein binding [13]): 90 % bound
- M plasma protein binding (Plasma protein binding [14]): 88 % bound and 88.9 % bound
- Microsome binding (Microsome binding): 29.9 % bound
- clearance at 24 h (in vivo): 26.1 mL/min/kg
- Human Ion Channel activity hERG (hERG): >33 µM
- Human Ion Channel activity KV1.5 K+ (KV1.5 K+): >11 µM
- R plasma protein binding (Plasma protein binding [15]): 88.2 % bound

SMILES: Cc1c(Cc2ccc(C(F)(F)F)nc2)c[nH]c1C(=O)NCC(F)(F)F [Compound 39, 3-Methyl-N-(2,2,2-trifluoroethyl)-4-((6-(trifluoromethyl)pyridin-3-yl)methyl)-1H-pyrrole-2-carboxamide]
- EC50 (Pf3D7 cells; [16]): 0.044 µM
- EC50 (Pf3D7 cells; read-out: EC50 Pf3D7 cells): 0.059 µM

SMILES: Cc1c(Cc2ccc(C(F)(F)F)cc2F)c[nH]c1C(=O)NC1CC1 [Compound 60, N-Cyclopropyl-4-(2-fluoro-4-(trifluoromethyl)benzyl)-3-methyl-1H-pyrrole-2-carboxamide]
- EC50 (Pf3D7 cells; [17]): < 0.03 µM

SMILES: Cc1c(Cc2ccc(C(F)(F)F)cc2Cl)c[nH]c1C(=O)NC1CC1 [Compound 66, 4-(2-chloro-4-(trifluoromethyl)benzyl)-N-cyclopropyl-3-methyl-1H-pyrrole-2-carboxamide]
- EC50 (Pf3D7 cells; [17]): < 0.03 µM
